Assay results from PubChem BioAssay (NCI).
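GI50 = concentration required for 50% inhibition of growth. TGI is the concentration that stops growth completely.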

Assays:
Assay in all cases: DTP human tumour cell line panel, 384-well format
786-0 renal = test system: 786-0 renal
A498 renal = test system: A498 renal
A549 NSCLC = test system: A549 NSCLC
ACHN renal = test system: ACHN renal
BT-549 breast = test system: BT-549 breast
CCRF-CEM leukemia = test system: CCRF-CEM leukemia
COLO 205 colon = test system: COLO 205 colon
DU-145 prostate = test system: DU-145 prostate
EKVX NSCLC = test system: EKVX NSCLC
HCC-2998 colon = test system: HCC-2998 colon
HCT-15 colon = test system: HCT-15 colon
HL-60(TB) leukemia = test system: HL-60(TB) leukemia
HOP-62 NSCLC = test system: HOP-62 NSCLC
HOP-92 NSCLC = test system: HOP-92 NSCLC
HS 578T breast = test system: HS 578T breast
HT29 colon = test system: HT29 colon
K-562 leukemia = test system: K-562 leukemia
LOX IMVI melanoma = test system: LOX IMVI melanoma
M14 melanoma = test system: M14 melanoma
MALME-3M melanoma = test system: MALME-3M melanoma
MDA-MB-231 breast = test system: MDA-MB-231 breast
MDA-MB-435 melanoma = test system: MDA-MB-435 melanoma
MDA-MB-468 breast = test system: MDA-MB-468 breast
MOLT-4 leukemia = test system: MOLT-4 leukemia
NCI-H226 lung = test system: NCI-H226 lung
NCI-H23 lung = test system: NCI-H23 lung
NCI-H322M lung = test system: NCI-H322M lung
NCI-H460 NSCLC = test system: NCI-H460 NSCLC
NCI-H522 lung = test system: NCI-H522 lung
NCI/ADR-RES ovarian = test system: NCI/ADR-RES ovarian
OVCAR-3 ovarian = test system: OVCAR-3 ovarian
OVCAR-4 ovarian = test system: OVCAR-4 ovarian
OVCAR-5 ovarian = test system: OVCAR-5 ovarian
OVCAR-8 ovarian = test system: OVCAR-8 ovarian
PC-3 prostate = test system: PC-3 prostate
RPMI-8226 leukemia = test system: RPMI-8226 leukemia
RXF 393 renal = test system: RXF 393 renal
SF-268 CNS = test system: SF-268 CNS
SF-295 CNS = test system: SF-295 CNS
SF-539 CNS = test system: SF-539 CNS
SK-MEL-28 melanoma = test system: SK-MEL-28 melanoma
SK-MEL-5 melanoma = test system: SK-MEL-5 melanoma
SK-OV-3 ovarian = test system: SK-OV-3 ovarian
SN12C renal = test system: SN12C renal
SNB-19 CNS = test system: SNB-19 CNS
SNB-75 CNS = test system: SNB-75 CNS
SR leukemia = test system: SR leukemia
SW-620 colon = test system: SW-620 colon
T-47D breast = test system: T-47D breast
U251 glioblastoma = test system: U251 glioblastoma
UACC-257 melanoma = test system: UACC-257 melanoma
UO-31 renal = test system: UO-31 renal

CC(C)[C@]12O[C@H]1[C@@H]1O[C@]13[C@]1(O[C@H]1C[C@H]1C4=C(CC[C@@]13C)C(=O)OC4)[C@@H]2O
GI50 ([…]-0 renal): < 0.01 µM | TGI (786-0 renal): 0.0177 µM | GI50 (A498 renal): < 0.01 µM | TGI (A498 renal): 0.0275 µM | GI50 (A549 NSCLC): 0.015 µM | TGI (A549 NSCLC): > 100 µM | GI50 (ACHN renal): < 0.01 µM | TGI (ACHN renal): 0.0324 µM | GI50 (BT-549 breast): < 0.01 µM | TGI (BT-549 breast): < 0.01 µM | GI50 (CCRF-CEM leukemia): < 0.01 µM | TGI (CCRF-CEM leukemia): 0.0157 µM | GI50 (COLO 205 colon): < 0.01 µM | TGI (COLO 205 colon): 0.0233 µM | GI50 (DU-145 prostate): < 0.01 µM | TGI (DU-145 prostate): < 0.01 µM | GI50 (EKVX NSCLC): 0.01 µM | TGI (EKVX NSCLC): 0.0302 µM | GI50 (HCC-2998 colon): 0.0137 µM | TGI (HCC-2998 colon): 0.0313 µM | GI50 (HCT-15 colon): < 0.01 µM | TGI (HCT-15 colon): 0.0316 µM | GI50 (HL-60(TB) leukemia): < 0.01 µM | TGI (HL-60(TB) leukemia): < 0.01 µM | GI50 (HOP-62 NSCLC): < 0.01 µM | TGI (HOP-62 NSCLC): < 0.01 µM | GI50 (HOP-92 NSCLC): 0.0123 µM | TGI (HOP-92 NSCLC): 0.0477 µM | GI50 (HS 578T breast): < 0.01 µM | TGI (HS 578T breast): 0.0184 µM | GI50 (HT29 colon): 0.0111 µM | TGI (HT29 colon): > 100 µM | GI50 (K-562 leukemia): < 0.01 µM | TGI (K-562 leukemia): 0.0188 µM | GI50 (LOX IMVI melanoma): < 0.01 µM | TGI (LOX IMVI melanoma): < 0.01 µM | GI50 (M14 melanoma): 0.0117 µM | TGI (M14 melanoma): 0.0241 µM | GI50 (MALME-3M melanoma): < 0.01 µM | TGI (MALME-3M melanoma): 0.021 µM | GI50 (MDA-MB-231 breast): < 0.01 µM | TGI (MDA-MB-231 breast): 0.0217 µM | GI50 (MDA-MB-435 melanoma): < 0.01 µM | TGI (MDA-MB-435 melanoma): 0.0181 µM | GI50 (MDA-MB-468 breast): < 0.01 µM | TGI (MDA-MB-468 breast): 0.0208 µM | GI50 (MOLT-4 leukemia): < 0.01 µM | TGI (MOLT-4 leukemia): < 0.01 µM | GI50 (NCI-H226 lung): < 0.01 µM | TGI (NCI-H226 lung): 0.0123 µM | GI50 (NCI-H23 lung): < 0.01 µM | TGI (NCI-H23 lung): < 0.01 µM | GI50 (NCI-H322M lung): 0.0108 µM | TGI (NCI-H322M lung): 0.0318 µM | GI50 (NCI-H460 NSCLC): < 0.01 µM | TGI (NCI-H460 NSCLC): < 0.01 µM | GI50 (NCI-H522 lung): < 0.01 µM | TGI (NCI-H522 lung): < 0.01 µM | GI50 (NCI/ADR-RES ovarian): < 0.01 µM | TGI (NCI/ADR-RES ovarian): 0.0261 µM | GI50 (OVCAR-3 ovarian): < 0.01 µM | TGI (OVCAR-3 ovarian): 0.0124 µM | GI50 (OVCAR-4 ovarian): < 0.01 µM | TGI (OVCAR-4 ovarian): < 0.01 µM | GI50 (OVCAR-5 ovarian): < 0.01 µM | TGI (OVCAR-5 ovarian): > 100 µM | GI50 (OVCAR-8 ovarian): 0.0106 µM | TGI (OVCAR-8 ovarian): 0.0366 µM | GI50 (PC-3 prostate): 0.0123 µM | TGI (PC-3 prostate): 0.052 µM | GI50 (RPMI-8226 leukemia): < 0.01 µM | TGI (RPMI-8226 leukemia): < 0.01 µM | GI50 (RXF 393 renal): < 0.01 µM | TGI (RXF 393 renal): < 0.01 µM | GI50 (SF-268 CNS): 0.0102 µM | TGI (SF-268 CNS): 0.0277 µM | GI50 (SF-295 CNS): < 0.01 µM | TGI (SF-295 CNS): 0.0213 µM | GI50 (SF-539 CNS): < 0.01 µM | TGI (SF-539 CNS): 0.0154 µM | GI50 (SK-MEL-28 melanoma): < 0.01 µM | TGI (SK-MEL-28 melanoma): < 0.01 µM | GI50 (SK-MEL-5 melanoma): < 0.01 µM | TGI (SK-MEL-5 melanoma): 0.0122 µM | GI50 (SK-OV-3 ovarian): < 0.01 µM | TGI (SK-OV-3 ovarian): 0.0365 µM | GI50 (SN12C renal): < 0.01 µM | TGI (SN12C renal): 0.0124 µM | GI50 (SNB-19 CNS): 0.0211 µM | TGI (SNB-19 CNS): > 100 µM | GI50 (SNB-75 CNS): < 0.01 µM | TGI (SNB-75 CNS): 0.0219 µM | GI50 (SR leukemia): < 0.01 µM | TGI (SR leukemia): < 0.01 µM | GI50 (SW-620 colon): < 0.01 µM | TGI (SW-620 colon): 0.0333 µM | GI50 (T-47D breast): < 0.01 µM | TGI (T-47D breast): 0.037 µM | GI50 (U251 glioblastoma): 0.0113 µM | TGI (U251 glioblastoma): 0.066 µM | GI50 (UACC-257 melanoma): < 0.01 µM | TGI (UACC-257 melanoma): 0.0212 µM | GI50 (UO-31 renal): 0.0114 µM | TGI (UO-31 renal): 0.0513 µM
